Consider eight compounds from patent US20150104519A1, “Pharmaceutical Compositions” (Alpharma Pharmaceuticals LLC, priority 2007, published 2015).

Structures can show the parent of a compound that is named as a salt.

For data set [1] the following is noted: in comparison to a 15 mg dose of hydrocodone.
The conditions of data set [2]: cited from earlier work.
Data set [3] relates to morphine effects. To be noted: three 100-mg doses of naltrexone; MS Contin; cited from earlier work.
Data set [4] has as its system mu over delta sites. To be noted: cited from earlier work.

In the case of `COc1ccc2c3c1OC1C(=O)CC[C@H]4[C@@H](C2)N(C)CC[C@]314` (stereo partly drawn) [Hydrocodone, 4,5-epoxy-3-methoxy-17-methylmorphinan-6-one], the “Equianalgesic dose, Calculated Dose” value in data set [1] is recorded as 15.0 mg.

With `CCC(=O)C(CC(C)N(C)C)(c1ccccc1)c1ccccc1` (stereo not drawn) [Methadone], in data set [1], the “Equianalgesic dose, Calculated Dose” value was 9.0 mg.

`O=C1CC[C@@]2(O)[C@H]3Cc4ccc(O)c5c4[C@@]2(CCN3CC2CC2)[C@H]1O5` [hydrochloride salt of naltrexone, Naltrexone HCl]: the soluble in water result in data set [2] is given as “about 100 mg/cc”.

Take `COc1ccc2c3c1OC1C(=O)CC[C@@]4(O)[C@@H](C2)N(C)CC[C@]314` (stereo partly drawn) [Oxycodone, 4,5-epoxy-14-hydroxy-3-methoxy-17-methylmorphinan-6-one]: the “Equianalgesic dose, Calculated Dose” value in data set [1] was 13.5 mg.

Turning to Meperidine, the “Equianalgesic dose, Calculated Dose” value in data set [1] is on record as 135.0 mg.

Take `COc1ccc2c3c1O[C@H]1[C@@H](O)C=C[C@H]4[C@@H](C2)N(C)CC[C@@]341` [Codeine]: in data set [1], the “Equianalgesic dose, Calculated Dose” value is 90.0 mg.

`O=C1CC[C@@]2(O)[C@H]3Cc4ccc(O)c5c4[C@@]2(CCN3CC2CC2)[C@H]1O5` [naltrexone]: the “blockade of morphine effects” value in data set [3] was “blocked”. The “blocking action, site preference” value in data set [4] was “strong preferential blocking action against mu over delta sites”.

Consider `CN1CC[C@]23CCCC[C@H]2[C@H]1Cc1ccc(O)cc13` [Levorphanol], for which the “Equianalgesic dose, Calculated Dose” value in data set [1] was 1.8 mg.
